Assay results: article PMC5571211 (Scientific Reports, 2017)

What was measured:
[1] = biological target: T1, human recombinant LTA4-H (Homo sapiens, UniProt P09960); assay: LTA4 hydrolase activity, co-incubation of isolated 5-LOX and LTA4-H; format: biochemical; conditions: diflapolin up to 10 µM, AUDA 10 µM, SC57461A 0.3 µM, zileuton 3 µM
T1 construct: gift of Dr. E. Proschak, Goethe University, Frankfurt
T1 sequence (P09960 2-611 limits assumed): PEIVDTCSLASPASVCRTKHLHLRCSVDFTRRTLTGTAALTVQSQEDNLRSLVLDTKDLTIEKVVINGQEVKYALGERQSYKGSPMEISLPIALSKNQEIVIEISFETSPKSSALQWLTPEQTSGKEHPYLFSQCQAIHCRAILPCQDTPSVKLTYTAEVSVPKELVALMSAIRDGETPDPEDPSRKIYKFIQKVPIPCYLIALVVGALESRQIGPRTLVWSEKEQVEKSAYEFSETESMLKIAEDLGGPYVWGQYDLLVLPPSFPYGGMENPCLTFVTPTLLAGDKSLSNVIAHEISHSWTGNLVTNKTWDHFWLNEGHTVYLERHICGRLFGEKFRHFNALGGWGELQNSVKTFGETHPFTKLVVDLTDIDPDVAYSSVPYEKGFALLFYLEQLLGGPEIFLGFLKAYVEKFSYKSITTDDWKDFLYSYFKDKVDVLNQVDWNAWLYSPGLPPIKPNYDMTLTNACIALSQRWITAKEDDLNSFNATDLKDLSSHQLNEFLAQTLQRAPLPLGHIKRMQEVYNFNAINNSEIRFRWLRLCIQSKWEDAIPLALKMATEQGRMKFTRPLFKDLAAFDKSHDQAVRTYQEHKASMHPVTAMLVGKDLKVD
Protocol: In order to determine the activity of LTA4-H, aliquots of human recombinant 5-LOX (0.5 µg) and 10 µg of human recombinant LTA4-H (kindly provided by Dr. E. Proschak, Goethe University, Frankfurt, Germany) were suspended in 1 mL PBS containing 1 mM EDTA and pre-incubated with test compounds or vehicle (0.1% DMSO) for 10 min on ice. The specific LTA4-H inhibitor SC57461A (0.3 µM) was used as reference drug. Subsequently, incubations were stimulated with 20 µM AA and 2 mM CaCl2 for additional 10 min at 37 °C. The reaction was stopped by 1 volume ice-cold methanol, 530 µL acidified PBS and 200 ng of PGB1 as internal standard were added and subjected to solid phase extraction. All LTB4 isomers were analyzed by HPLC as described above.

[2] = system: AA release (cPLA2) in neutrophils; assay: [3H]-labeled arachidonic acid release in neutrophils; format: cell-based, human; conditions: [3H]AA-pre-labelled neutrophils; diflapolin 1 µM, RSC-3388 10 µM
Protocol: Freshly isolated human neutrophils were resuspended in RPMI 1640 medium to a final cell density of 10^7 cells/mL and incubated with 0.5 µCi/mL of [^3H]-labeled arachidonic acid ([^3H]-AA), corresponding to a concentration of 5 nM of the fatty acid, for 2 hrs (37 °C, 5% CO2). Cells were washed twice to remove unincorporated [^3H]-AA and resuspended in PBS containing glucose (0.1%), fatty acid-free BSA (2 mg/mL) and CaCl2 (1 mM). […] The reaction was stopped on ice and cells were centrifuged at 1,200 rpm (10 min, 4 °C). The collected supernatants were combined with 2 mL of liquid scintillation counting solution (Rotiszint eco plus, Carl Roth, Karlsruhe, Germany) and assayed for radioactivity by scintillation counting (Micro Beta Trilux, Perkin Elmer, Waltham, MA).

[3] = system: recombinant LTA4-H; set-up: method as in PMID 11805219; conditions: read-out: IC50 against recombinant LTA4-H; cited from earlier work
[4] = biological target: T2, sEH in HepG2 cells (Homo sapiens, UniProt P34913); assay: 14,15-DiHETrE formation in HepG2 cells (cell-based sEH assay)
T2 construct: sEH is constitutively expressed in the human liver cancer cell line HepG2; endogenous in cells; host or cells: HepG2
T2 sequence (P34913 1-555): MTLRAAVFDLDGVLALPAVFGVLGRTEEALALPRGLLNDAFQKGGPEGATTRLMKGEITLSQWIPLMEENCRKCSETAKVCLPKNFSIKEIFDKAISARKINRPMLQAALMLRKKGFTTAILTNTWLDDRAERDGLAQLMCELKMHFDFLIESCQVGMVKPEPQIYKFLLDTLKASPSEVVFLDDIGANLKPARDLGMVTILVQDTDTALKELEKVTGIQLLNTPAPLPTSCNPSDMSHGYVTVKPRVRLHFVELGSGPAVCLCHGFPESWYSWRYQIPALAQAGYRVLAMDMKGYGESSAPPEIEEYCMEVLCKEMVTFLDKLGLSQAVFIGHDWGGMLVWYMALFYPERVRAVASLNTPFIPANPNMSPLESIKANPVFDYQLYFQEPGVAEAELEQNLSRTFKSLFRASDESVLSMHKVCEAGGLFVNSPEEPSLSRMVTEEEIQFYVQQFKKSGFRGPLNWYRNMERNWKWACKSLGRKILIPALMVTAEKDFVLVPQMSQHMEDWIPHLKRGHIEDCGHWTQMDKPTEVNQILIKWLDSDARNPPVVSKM
Protocol: To assay the activity of sEH in a cell-based model, HepG2 cells were harvested by trypsinization, pelleted (1,200 rpm, 5 min, 4 °C) and resuspended in PGC buffer to a final concentration of 1.5 × 10^6 cells/mL. […] Briefly, samples were acidified with four volumes of MilliQ water pH 3.5 containing PBS-HCl and subjected to Waters Sep-Pak® Vac 6cc columns (Waters, Milford, MA, USA), washed once with MilliQ and hexane, and eluted with methylformiate. The nitrogen-dried samples were dissolved in 50% methanol, and 14,15-DiHETrE formation was measured by UPLC-MS/MS using an Acquity™ UPLC system (Waters, Milford, MA, USA) and a QTRAP 5500 Mass Spectrometer (ABSciex, Darmstadt, Germany) equipped with a Turbo V™ Source and electrospray ionization (ESI). […] Ion spray voltage was set to 4000 V, the heater temperature to 500 °C, the declustering potential to 50–80 eV, the entrance potential to 10 eV, the collision cell exit potential to 10–13 eV, collision energies of 10 eV, the spray gas pressure to 40 psi, medium collision gas and the curtain gas pressure to 35 psi.

[5] = system: monocytes; assay: Acute cytotoxicity, MTT assay in monocytes; format: cell-based, human; conditions: 24 or 48 hrs; diflapolin 10 µM, staurosporine 3 µM
Protocol: Acute cytotoxicity of the compounds was determined using freshly isolated monocytes. Cells (0.2 × 10^6) per sample were seeded in 100 µL buffer on 96-well plates and treated with the test compounds and appropriate controls for 24 or 48 hrs (37 °C, 5% CO2). After addition of MTT (5 mg/mL) for 2 h (37 °C, 5% CO2), cells were lysed by SDS treatment (10%, pH 4.5) for 16–20 hrs and formazan formation was determined by measurement of absorbance at 570 nm.

[6] = biological target: T3, co-localization of 5-LOX with FLAP (Homo sapiens, UniProt P20292); assay: Immunofluorescence microscopy of 5-LOX subcellular redistribution / co-localization with FLAP; format: cell-based; conditions: human neutrophils or monocytes; diflapolin 1 µM, MK886 0.3 µM, zileuton 3 µM
T3 construct: endogenous in cells; host or cells: freshly isolated human monocytes (immunofluorescence also in neutrophils)
T3 sequence (P20292 1-161): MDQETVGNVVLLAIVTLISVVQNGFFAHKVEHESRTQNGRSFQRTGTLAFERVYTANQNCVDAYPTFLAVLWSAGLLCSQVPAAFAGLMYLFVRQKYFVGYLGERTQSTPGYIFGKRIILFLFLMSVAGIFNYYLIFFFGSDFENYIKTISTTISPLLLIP
Protocol: The incubations were stopped by paraformaldehyde fixation (4%, 20 min, RT) and cells were permeabilized using 100% ice-cold acetone (5 min, 4 °C). Blocking with non-immune goat serum (30 min, RT) was performed prior to overnight incubation (4 °C) with primary monoclonal-mouse-anti-5-LOX antibody (1:100 dilution, a generous gift from Dr. D. Steinhilber, Goethe University Frankfurt, Germany) and polyclonal-rabbit-anti-FLAP antibody (5 µg/mL, Abcam, Cambridge, UK). […] Cells were visualized by a Zeiss Axiovert 200 M microscope, and a Plan Neofluar × 100/1.30 Oil (DIC III) objective (Carl Zeiss, Jena, Germany) and image acquisition was performed using an AxioCam MR camera (Carl Zeiss).

[7] = system: 5-LOX activity in monocytes, neutrophils; assay: cells; conditions: Homo sapiens, read-out: IC50 5-LOX activity in cell-based assays
Protocol: In order to examine 5-LOX product formation in intact human neutrophils and monocytes, freshly isolated cells were resuspended in PBS buffer containing 0.1% glucose and 1 mM CaCl2 (PGC buffer) to a final cell density of 5 × 10^6 or 2 × 10^6, respectively. […] 5-LOX product formation was stopped by addition of one volume of ice-cold methanol, samples were subjected to solid phase extraction after addition of 200 ng PGB1 as internal standard and 5-LOX products were analyzed by RP-HPLC as described above.

[8] = biological target: T4, 5-LOX/FLAP complex (Homo sapiens, UniProt P20292); assay: Proximity ligation assay of 5-LOX/FLAP complex assembly in monocytes; format: cell-based; conditions: diflapolin 1 µM, MK886 0.3 µM, zileuton 3 µM
T4 construct: endogenous in cells; host or cells: freshly isolated human monocytes (immunofluorescence also in neutrophils)
T4 sequence (P20292 1-161): T3 sequence (P20292 1-161)
Protocol: In situ protein interaction of 5-LOX and FLAP was analyzed by proximity ligation assay as described before[37] and referring to the manufacturer’s protocol. In brief, freshly isolated monocytes were treated as described for IF above. Overnight incubations with primary antibodies were then treated for 1 h (37 °C) with oligonucleotide-labeled specific secondary antibodies (PLA probes anti-mouse MINUS and anti-rabbit PLUS). Formation of circled DNA sequences was induced by addition of ligase and oligonucleotide mixture (30 min at 37 °C). Rolling-circle-amplification of newly generated DNA template was performed (90 min, 37 °C) including hybridization of fluorescently-labeled oligonucleotides within the formed DNA strands, resulting in visualization of protein-protein interactions recognized as magenta-stained dots. Nuclear DNA staining with DAPI and image acquisition was performed as described above. Overview images were obtained using a Plan Neofluar 40/1.30 Oil (DIC III) objective (Carl Zeiss).

## O=C(O)CCCCCCCCCCCNC(=O)NC12CC3CC(CC(C3)C1)C2 [AUDA]
[1]
  effect on LTA4-H activity (LTB4 formation): showed the same pattern as diflapolin

## CC(C)CN(Cc1ccccc1-c1ccccc1)[C@@H]1C[C@@H](CNC(=O)/C=C/c2ccc(/C=C3\SC(=O)NC3=O)cc2)N(C(=O)c2ccccc2C(=O)c2ccc(F)cc2F)C1 [RSC-3388]
[2]
  release of AA upon A23187-stimulation: suppressed AA liberation

## CN(CCCOc1ccc(Cc2ccccc2)cc1)CCC(=O)O.Cl [SC57461A, 3-[methyl[3-[4-(phenylmethyl)phenoxy]propyl]amino]propanoic acid HCl]
[3]
  IC50: 100 nM
[1]
  effect on LTA4-H activity (LTB4 formation): blocked LTB4 biosynthesis
[4]
  effect on sEH in the cell-based sEH assay: no impact

## CN[C@@H]1C[C@H]2O[C@@](C)([C@@H]1OC)n1c3ccccc3c3c4c(c5c6ccccc6n2c5c31)C(=O)NC4 [staurosporine]
[5]
  viability of monocytes, MTT assay: strongly impaired cell viability

## CC(c1cc2ccccc2s1)N(O)C(N)=O (stereo not shown) [zileuton]
[6]
  co-localization of 5-LOX with FLAP: neither diflapolin nor the FLAP inhibitor MK886 or the 5-LOX inhibitor zileuton prevented co-localization
[7]
  IC50: 1500 nM
[8]
  5-LOX/FLAP complex assembly (PLA): failed
[1]
  effect on LTA4-H activity (LTB4 formation): reduced the formation of all LTB4 isomers
